According to patent US11800867B2, “Methods of repelling biting arthropods, reducing pathogen spread and treating arthropod infestation” (priority 2016, dated 2023):

Columns and labels:
[1] = tested on: female Aedes aegypti mosquitoes; experiment: In vitro membrane feeder repellency assay, probing of treated collagen membranes (Example 2); format: in vivo; settings: 20% DEET in ethanol, 25 μL on collagen membrane; twenty minutes; average ± SE, n = 5
Source text: (§1) A laboratory trial was required to evaluate the repellency of 1% Nootkatone against female Aedes aegypti, Culex quinquefasciatus, and Anopheles quadrimaculatus mosquitoes using an in vitro method.
(§2) Female adult laboratory reared Aedes aegypti, Culex quinquefasciatus, and Anopheles quadrimaculatus mosquitoes (susceptible) were obtained from Benzon Research in Carlisle, Pa. 250 mosquitoes were used per replicate (5 replicates per test, per species). Adult mosquitoes were 3-8 days old.
(§3) Nootkatone was diluted in ethanol and acetone (note that Nootkatone diluted in acetone was not tested against An. quadrimaculatus). A positive control consisting of 20% DEET in ethanol was prepared using stock solutions. Negative controls consisted of no treatment, and ethanol-only treatment.
(§4) The treatments were applied directly to prepared collagen membranes by pipetting 25 μL of the appropriate substance onto a membrane and spreading it evenly with the tip of the pipette.
(§5) Exposure container. A 30.5 cm×30.5 cm×30.5 cm rigid plastic frame supported by four, 4 cm high legs, with a sleeved entry on one side and a sliding door on the bottom.
(§6) Membrane feeder. Five wells (3 cm in diameter×8 mm in depth) in line on a hollow plastic block (6 cm wide×22 cm long×3 cm deep), which fits through the sliding door in the bottom of the exposure container. Hoses attached to each side of the block circulate heated water that is pumped from a water bath. The sliding door in the bottom of the exposure container covers and uncovers the wells in the membrane feeder, allowing mosquitoes to access the wells.
(§7) Test set-up. The membrane feeder was connected to a heated water bath, and warm water passed through the feeder via a circulating pump so that the wells were warmed to 89-95° F. Seventy-two (72) mg of ATP (disodium salt) were added to 26 mL of warmed citrated bovine blood, which was poured into the wells until they were completely full.
(§8) The collagen membranes were placed on vacuum greased wax paper for treatment. They were then treated as described above and left for five minutes to dry. After they dried, the membranes were placed over each of the wells (using vacuum grease as an adhesive), completely covering the blood.
(§9) Exposure to mosquitoes. The mosquitoes were released into the exposure container just prior to exposure to the membranes. The exposure container was then placed on the membrane feeder and the sliding door opened, allowing the mosquitoes to access the wells. The number of mosquitoes probing each membrane was recorded every two minutes for twenty minutes.
(§10) The above procedures were repeated until five replicates were completed. A new batch of 250 female mosquitoes and fresh blood were used for each replicate, and the wells were cleaned in between replicates. The position of the treatments was rotated for each replicate, so that each treatment was tested on each of the five wells.
(§11) Percent repellency was calculated for each replicate using the total number of probes with the following formula:
(§12) [formula] • where C=the total number of probes on the untreated well • and T=the total number of probes on the treated well
(§13) Average percent repellency and standard error were then calculated across all five replicates. Shapiro-Wilks tests were conducted to determine the normality of the data, based on total number of probes per replicate. Depending on normality, student t-tests (with concurrent F-tests for variance) or Mann-Whitney tests were then used to determine significance between the treatments.

[2] = tested on: female Anopheles quadrimaculatus mosquitoes; experiment: as above; format: in vivo; settings: 20% DEET in ethanol, 25 μL on collagen membrane; twenty minutes; average ± SE, n = 5
Source text: as §1, §2, §3, §4, §5, §6, §7, §8, §9, §10, §11, §12, §13

[3] = tested on: female Culex quinquefasciatus mosquitoes; experiment: as above; format: in vivo; settings: 20% DEET in ethanol, 25 μL on collagen membrane; twenty minutes; average ± SE, n = 5
Source text: as §1, §2, §3, §4, §5, §6, §7, §8, §9, §10, §11, §12, §13

[4] = humans; compound found in bergamot and citrus essential oils; cited from earlier work

Structure (SMILES)	Percent repellency [1] [%]	Percent repellency [2] [%]	Percent repellency [3] [%]	Phototoxicity [4]
CCN(CC)C(=O)c1cccc(C)c1 [DEET, N,N-Diethyl-meta-toluamide, reference compound]	99.4 ± 0.6	100.0 ± 0.0	95.9 ± 4.1	–
COc1c2ccoc2cc2oc(=O)ccc12 [Bergapten, 5-methoxypsoralen]	–	–	–	causes phototoxicity in humans
